Test results: PMC12527922, “Cocaine chemogenetics blunts drug-seeking by synthetic physiology” (Nature, 2025)

Target: coca-5HT3 (α7(L141G,G175K,Y210F,Y217F)–5HT3) (Homo sapiens, UniProt P36544, G175K/L141G/Y210F/Y217F)
Assay: Membrane potential assay, coca-5HT3 in HEK293
Details: for Max normalized Response / Response: coca-5HT3; for Max normalized Response: ED Fig 3b; for activation of coca-5HT3: membrane potential assay dose response; for response at coca-5HT3: between 10-100 µM

coca-5HT3 (α7(L141G,G175K,Y210F,Y217F)–5HT3), sequence (P36544 23-224 L141G/G175K/Y210F/Y217F): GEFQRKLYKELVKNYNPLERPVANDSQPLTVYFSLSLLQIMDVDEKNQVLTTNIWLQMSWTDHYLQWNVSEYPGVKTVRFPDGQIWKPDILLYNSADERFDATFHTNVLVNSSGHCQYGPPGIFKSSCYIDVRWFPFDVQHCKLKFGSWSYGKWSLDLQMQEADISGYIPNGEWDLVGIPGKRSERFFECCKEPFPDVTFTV
coca-5HT3 (α7(L141G,G175K,Y210F,Y217F)–5HT3), sequence (P23979 242-489, further chain): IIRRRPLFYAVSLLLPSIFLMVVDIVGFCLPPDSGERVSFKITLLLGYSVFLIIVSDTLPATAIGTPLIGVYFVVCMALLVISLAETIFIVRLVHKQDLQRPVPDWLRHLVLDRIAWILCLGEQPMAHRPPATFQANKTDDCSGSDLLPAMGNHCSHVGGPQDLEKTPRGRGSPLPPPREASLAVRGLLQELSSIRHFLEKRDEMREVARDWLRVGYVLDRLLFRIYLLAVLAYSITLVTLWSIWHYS

Row | Compound | Max normalized Response (conc 0.137 uM) | Max normalized Response (conc 3.7 uM) | Max normalized Response (conc 11.1 uM) | Max normalized Response (conc 33.3 uM) | Max normalized Response (conc 100 uM) | Response (conc 1.37174 uM, ED Fig 3a) | Response (conc 12.3457 uM, ED Fig 3a) | Response (conc 37.037 uM, ED Fig 3a) | Response (conc 111.111 uM, ED Fig 3a) | Response (conc 333.333 uM, ED Fig 3a) | Response (conc 0.457247 uM, ED Fig 3a) | also measured
1 | CC(C)[N+]1(C)[C@@H]2CC[C@H]1C[C@@H](OC(=O)C(CO)c1ccccc1)C2 (some centres unmarked) [Ipatropium] | 0.03351 | 0.3358 | 0.05921 | 0.03979 | 0.03984 |  |  |  |  |  |  | 
2 | NCCc1c[nH]c2ccc(O)cc12 [Serotonin] |  |  |  |  |  | 0.295 | 0.101 | 0.082 | 0.115 | 0.156 |  | Response (conc 1000 uM, ED Fig 3a): 0.112
3 | NCC(=O)O [Glycine] |  |  |  |  |  | 0.03 | 0.032 | 0.042 | 0.053 | 0.108 | 0.223 | Response (conc 1000 uM, ED Fig 3a): 0.232
4 | NCCc1ccc(O)c(O)c1 [Dopamine] |  |  |  |  |  | 0.062 | 0.04 | 0.017 | 0.052 | 0.039 | 0.119 | Response (conc 1000 uM, ED Fig 3a): 0.106
5 | Nc1ncnc2c1ncn2[C@@H]1O[C@H](CO)[C@@H](O)[C@H]1O [adenosine] |  |  |  |  |  | 0.045 | 0.079 | 0.053 |  |  | 0.126 | 
6 | NCCCC(=O)O [GABA] |  |  |  |  |  | 0.099 | 0.041 | 0.055 | 0.023 | 0.05 | 0.157 | Response (conc 1000 uM, ED Fig 3a): 0.066
7 | CCCC[N+]1(C)[C@@H]2C[C@@H](OC(=O)[C@H](CO)c3ccccc3)C[C@H]1[C@@H]1O[C@@H]12 (some centres unmarked) [n-Butylscopolamine] | 0.07428 | 0.05731 | 0.07366 | 0.04125 | 0.03532 |  |  |  |  |  |  | 
8 | C[N+]1(C)[C@@H]2C[C@@H](OC(=O)[C@H](CO)c3ccccc3)C[C@H]1[C@@H]1O[C@@H]12 [Methscopolamine] | 0.01611 | 0.08959 | 0.03432 | 0.1141 | 0.3973 |  |  |  |  |  |  | 
9 | CN[C@@H](C)Cc1ccccc1 [methamphetamine] |  |  |  |  |  |  |  |  |  |  |  | Response (conc 0.0137 uM, ED Fig. 2c): 0.198; Response (conc 0.123 uM, ED Fig. 2c): 0.256; Response (conc 0.37 uM, ED Fig. 2c): 0.136; Response (conc 10 uM, ED Fig. 2c): 0.224; Response (conc 30 uM, ED Fig. 2c): 0.204; activation of coca-5HT3: did not activate
10 | CN1[C@@H]2CC[C@H]1C[C@@H](OC(c1ccccc1)c1ccccc1)C2 [Benztropine] | 0.05732 | 0.1399 | 0.2931 | 0.5901 | 1.051 |  |  |  |  |  |  | response at coca-5HT3: substantial response
11 | CN1[C@@H]2C[C@@H](OC(=O)[C@H](CO)c3ccccc3)C[C@H]1[C@@H]1O[C@@H]12 [Scopolamine] | 0.06195 | 0.06448 | 0.04953 | 0.06371 | 0.0598 |  |  |  |  |  |  | 
12 | C[N+]1(C)[C@@H]2CC[C@H]1C[C@@H](OC(=O)C(CO)c1ccccc1)C2 (some centres unmarked) [Methylatropine] | 0.09159 | 0.07315 | 0.365 | 0.7258 | 0.936 |  |  |  |  |  |  | response at coca-5HT3: substantial response
13 | NC[C@H](O)c1ccc(O)c(O)c1 [Norepinephrine] |  |  |  |  |  | 0.081 | 0.077 | 0.059 | 0.059 | 0.043 | 0.151 | 
14 | ecgonine |  |  |  |  |  |  |  |  |  |  |  | Response (conc 0.0137174 uM, ED Fig. 2b): 0.052; Response (conc 0.123457 uM, ED Fig. 2b): 0.065; Response (conc 0.37037 uM, ED Fig. 2b): 0.073; Response (conc 1.11111 uM, ED Fig. 2b): 0.07; Response (conc 3.33333 uM, ED Fig. 2b): 0.053; Response (conc 10 uM, ED Fig. 2b): 0.084; Response (conc 30 uM, ED Fig. 2b): 0.084; activation of coca-5HT3: not activated
15 | CC(=O)Oc1ccc2c3c1O[C@H]1[C@@H](OC(C)=O)C=C[C@H]4[C@@H](C2)N(C)CC[C@@]341 [heroin] |  |  |  |  |  |  |  |  |  |  |  | Response (conc 0.0137 uM, ED Fig. 2c): 0.058; Response (conc 0.123 uM, ED Fig. 2c): 0.046; Response (conc 0.37 uM, ED Fig. 2c): 0.054; Response (conc 10 uM, ED Fig. 2c): 0.109; Response (conc 30 uM, ED Fig. 2c): 0.105; activation of coca-5HT3: did not activate
